Measurements published in the NIST ThermoML archive (doi:10.1016/j.jct.2019.02.025).

Assays:
[1] = refractive index (Na D-line) (dimensionless); conditions: 101.33 kPa, Liquid, Standard Abbe refractometry
[2] = for mass density / kinematic viscosity: 101.33 kPa, Liquid; for mass density: Vibrating tube method; for surface tension liquid-gas / kinematic viscosity: Surface laser light scattering (SLLS)

CCCCCC(=O)OC [methyl hexanoate]
Conditions	kinematic viscosity [m2/s]	mass density [kg/m3]	refractive index	surface tension liquid-gas [mN/m]
[1], 278.15 K	–	–	1.41212	–
[1], 283.15 K	–	–	1.40984	–
[1], 288.15 K	–	–	1.40757	–
[1], 293.15 K	–	–	1.40529	–
[1], 298.15 K	–	–	1.403	–
[1], 303.15 K	–	–	1.4007	–
[1], 308.15 K	–	–	1.39841	–
[1], 313.15 K	–	–	1.3961	–
[1], 318.15 K	–	–	1.39373	–
[1], 323.15 K	–	–	1.39136	–
[1], 328.15 K	–	–	1.38902	–
[1], 333.15 K	–	–	1.38667	–
[1], 338.15 K	–	–	1.38432	–
[1], 343.15 K	–	–	1.38169	–
[1], 348.15 K	–	–	1.37961	–
[1], 353.15 K	–	–	1.37725	–
[1], 358.15 K	–	–	1.3749	–
[2], 293.15 K	–	884.44	–	–
[2], 298.14 K	1.02e-06	–	–	24.58
[2], 303.15 K	–	874.79	–	–
[2], 313.15 K	–	865.12	–	–
[2], 323.15 K	–	855.4	–	–
[2], 323.17 K	7.49e-07	–	–	22.44
[2], 333.15 K	–	845.68	–	–
[2], 343.15 K	–	835.87	–	–
[2], 348.18 K	5.74e-07	–	–	20.35
[2], 353.15 K	–	825.97	–	–
[2], 363.15 K	–	815.95	–	–
[2], 373.15 K	–	805.49	–	–
[2], 373.21 K	4.53e-07	–	–	18.03
[2], 383.15 K	–	795.6	–	–
[2], 393.15 K	–	785.23	–	–
[2], 398.2 K	3.74e-07	–	–	15.63
[2], 403.15 K	–	774.67	–	–
[2], 413.15 K	–	763.86	–	–
[2], 423.17 K	3.25e-07	–	–	13.36
[2], 448.17 K	2.82e-07	–	–	11.18

CCCCCCCCCCCC [dodecane]
[2]
Conditions	kinematic viscosity [m2/s]	mass density [kg/m3]	surface tension liquid-gas [mN/m]
293.15 K	–	748.81	–
298.16 K	1.76e-06	–	23.37
303.15 K	–	741.42	–
313.15 K	–	734.08	–
323.15 K	–	726.74	–
323.23 K	1.25e-06	–	21.9
333.15 K	–	719.38	–
343.15 K	–	711.32	–
348.21 K	9.24e-07	–	20.09
353.15 K	–	704.62	–
363.15 K	–	697.21	–
373.15 K	–	689.75	–
373.29 K	7.24e-07	–	18.02
383.15 K	–	682.25	–
393.15 K	–	674.68	–
398.25 K	5.87e-07	–	16.1
403.15 K	–	667.04	–
413.15 K	–	659.32	–
423.15 K	–	651.53	–
423.26 K	4.89e-07	–	14.25
433.15 K	–	643.6	–
443.15 K	–	635.55	–
448.27 K	4.16e-07	–	12.32
453.15 K	–	627.38	–
463.15 K	–	619.09	–
473.15 K	–	610.6	–

CCCCCCCCCC(=O)OCC [ethyl decanoate]
Conditions	kinematic viscosity [m2/s]	mass density [kg/m3]	refractive index	surface tension liquid-gas [mN/m]
[1], 278.15 K	–	–	1.43213	–
[1], 283.15 K	–	–	1.43	–
[1], 288.15 K	–	–	1.42789	–
[1], 293.15 K	–	–	1.42577	–
[1], 298.15 K	–	–	1.42366	–
[1], 303.15 K	–	–	1.42155	–
[1], 308.15 K	–	–	1.41944	–
[1], 313.15 K	–	–	1.41729	–
[1], 318.15 K	–	–	1.41512	–
[1], 323.15 K	–	–	1.41297	–
[1], 328.15 K	–	–	1.41084	–
[1], 333.15 K	–	–	1.40873	–
[1], 338.15 K	–	–	1.40661	–
[1], 343.15 K	–	–	1.40451	–
[1], 348.15 K	–	–	1.40241	–
[1], 353.15 K	–	–	1.40034	–
[1], 358.15 K	–	–	1.39826	–
[2], 293.15 K	–	864.08	–	–
[2], 298.13 K	2.2e-06	–	–	23.87
[2], 303.15 K	–	855.82	–	–
[2], 313.15 K	–	847.62	–	–
[2], 323.11 K	1.59e-06	–	–	22.57
[2], 323.15 K	–	839.41	–	–
[2], 333.15 K	–	830.71	–	–
[2], 343.15 K	–	822.79	–	–
[2], 348.1 K	1.22e-06	–	–	21.38
[2], 353.15 K	–	814.9	–	–
[2], 363.15 K	–	806.72	–	–
[2], 373.15 K	–	798.5	–	–
[2], 373.17 K	9.55e-07	–	–	19.81
[2], 383.15 K	–	790.26	–	–
[2], 393.15 K	–	781.97	–	–
[2], 398.16 K	7.48e-07	–	–	18.26
[2], 403.15 K	–	773.63	–	–
[2], 413.15 K	–	765.29	–	–
[2], 423.12 K	6.18e-07	–	–	16.8
[2], 423.15 K	–	756.81	–	–
[2], 433.15 K	–	748.26	–	–
[2], 443.15 K	–	739.7	–	–
[2], 448.1 K	4.92e-07	–	–	14.86
[2], 453.15 K	–	731.01	–	–
